# From US12398179B2, “Nanomolar peptides and derivatives to differentially modulate ephrin receptors” (Sanford Burnham Prebys Medical Discovery Institute, priority 2019, dated 2025)
# Where two headings read alike, the source gives them in different places.
# Legend:
# [1] = physchem
# [2] = Peptide solubility in PBS/H2O
# [3] = target: T1, EphA2 G131Y (Homo sapiens, UniProt P29317, G131Y); assay: Quantitative FRET of EphA2 oligomerization in HEK293 cells; format: cell-based; settings: 50 μM peptide
# T1 construct: expressed in transfected cells; host or cells: HEK293 (transient transfection)
# Source text: (§1) (FIG. 5F) Two-dimensional dissociation constant values (Kdiss) and dimerization free energy values (ΔG=−RT×In (10^6/Kdiss) calculated from the curves shown in the other panels. Shown are the best fit values and the […] confidence intervals (standard errors). Kdiss values for all curves were compared to each other using one-way ANOVA followed by Tukey's multiple comparison test; *, P<0.05; **, P<0.01; ***, P<0.001; * P<0.0001; ns, not significant.
# (§2) Thus, the peptide enhanced the weak EphA2 dimerization observed in the absence of a bound ligand, which also occurred through the clustering interface. In contrast, the monomeric soluble form of ephrin-Al induced the formation of EphA2 dimers that assembled through another extracellular interface known as the “heterodimerization” or “dimerization” interface.
# [4] = target: T2, EphA2 L223R/L254R/V255R (Homo sapiens, UniProt P29317, L223R/L254R/V255R); assay: as above; format: cell-based; settings: 50 μM peptide
# T2 construct: expressed in transfected cells; host or cells: HEK293 (transient transfection)
# Source text: as §1, §2
# [5] = target: T3, EphA2 WT (Homo sapiens, UniProt P29317); assay: as above; format: cell-based; settings: transiently transfected HEK293 cells; 50 μM for YSA-GSGSK-bio
# T3 construct: expressed in transfected cells; host or cells: HEK293 (transient transfection)
# [6] = target: T4, EphA2 (Homo sapiens, UniProt P29317); assay: ELISA: inhibition of ephrin-A5 AP binding to immobilized EphA2 Fc; parameters: the immobilized EphA2 extracellular domain fused to the Fc portion of an antibody (EphA2 Fc); settings: average ± SE
# Procedure: (FIG. 2A) Representative ELISAs comparing the ability of the peptides to inhibit binding of ephrin-A5 fused to alkaline phosphatase (ephrin-A5 AP) to the immobilized EphA2 extracellular domain fused to the Fc portion of an antibody (EphA2 Fc). The graphs show averages±SE from triplicate measurements from a representative experiment. IC50 values calculated from the fitted curves in each experiment are shown. All concentrations are nM and the 100 nM peptide concentration is outlined in red. (FIG. 2B) Ephrin-A5 AP binding to the indicated EphA receptors and ephrin-B2 AP binding to the indicated EphB receptors in the presence of the indicated peptide, normalized to ephrin binding without peptide. The bars show averages±SE from triplicate measurements.
# Target sequence in this assay (P29317 24-537 limits assumed, species assumed): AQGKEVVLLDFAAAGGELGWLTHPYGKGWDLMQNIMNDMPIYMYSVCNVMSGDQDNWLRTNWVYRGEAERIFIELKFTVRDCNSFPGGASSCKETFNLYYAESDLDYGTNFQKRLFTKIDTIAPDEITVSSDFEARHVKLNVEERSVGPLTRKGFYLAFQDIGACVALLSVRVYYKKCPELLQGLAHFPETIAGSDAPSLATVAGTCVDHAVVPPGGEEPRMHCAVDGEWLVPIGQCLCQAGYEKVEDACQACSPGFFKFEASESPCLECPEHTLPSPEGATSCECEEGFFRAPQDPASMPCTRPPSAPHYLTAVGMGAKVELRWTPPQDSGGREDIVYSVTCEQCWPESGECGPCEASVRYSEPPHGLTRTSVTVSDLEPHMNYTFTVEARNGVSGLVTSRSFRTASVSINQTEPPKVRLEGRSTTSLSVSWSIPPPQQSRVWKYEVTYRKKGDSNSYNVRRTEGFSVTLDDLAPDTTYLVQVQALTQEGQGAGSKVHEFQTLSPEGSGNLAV
# [7] = target: T4, EphA2; assay: EphA2 Y588 autophosphorylation in PC3 cells (immunoblot); format: cell-based; parameters: endogenous EphA2 expressed in PC3 prostate cancer cells; endogenous in cells; host or cells: PC3 prostate cancer cells; settings: for EphA2 activation / Y588 phosphorylation (in words): 15 min
# Procedure: (§3) PC3 cells were treated for 15 min with different concentrations of the indicated peptides. […] The graphs show quantification of pY588 and pAKT from multiple blots (averages±SE), normalized to total EphA2 levels. The number of experiments analyzed is: 5 in FIG. 4A, 3 in FIG. 4B, 7 in FIG. 4C, 7 in FIG. 4D, 5 in FIG. 4E, 3 in FIG. 4F, 3 in FIG. 4G and 2 in FIG. 4H.
# PC3 cells were treated for 15 min with different concentrations of the indicated peptides. […] The graphs show quantification of pY588 or pAKT from multiple blots (averages±SE), normalized to total EphA2 levels. The number of experiments analyzed is: 3 in FIG. 10A, 6 in FIG. 10B, 2 in FIG. 10C, 5 in FIG. 10D, 4 in FIG. 10E and 3 in FIG. 10F.
# Target sequence in this assay (P29317 24-976): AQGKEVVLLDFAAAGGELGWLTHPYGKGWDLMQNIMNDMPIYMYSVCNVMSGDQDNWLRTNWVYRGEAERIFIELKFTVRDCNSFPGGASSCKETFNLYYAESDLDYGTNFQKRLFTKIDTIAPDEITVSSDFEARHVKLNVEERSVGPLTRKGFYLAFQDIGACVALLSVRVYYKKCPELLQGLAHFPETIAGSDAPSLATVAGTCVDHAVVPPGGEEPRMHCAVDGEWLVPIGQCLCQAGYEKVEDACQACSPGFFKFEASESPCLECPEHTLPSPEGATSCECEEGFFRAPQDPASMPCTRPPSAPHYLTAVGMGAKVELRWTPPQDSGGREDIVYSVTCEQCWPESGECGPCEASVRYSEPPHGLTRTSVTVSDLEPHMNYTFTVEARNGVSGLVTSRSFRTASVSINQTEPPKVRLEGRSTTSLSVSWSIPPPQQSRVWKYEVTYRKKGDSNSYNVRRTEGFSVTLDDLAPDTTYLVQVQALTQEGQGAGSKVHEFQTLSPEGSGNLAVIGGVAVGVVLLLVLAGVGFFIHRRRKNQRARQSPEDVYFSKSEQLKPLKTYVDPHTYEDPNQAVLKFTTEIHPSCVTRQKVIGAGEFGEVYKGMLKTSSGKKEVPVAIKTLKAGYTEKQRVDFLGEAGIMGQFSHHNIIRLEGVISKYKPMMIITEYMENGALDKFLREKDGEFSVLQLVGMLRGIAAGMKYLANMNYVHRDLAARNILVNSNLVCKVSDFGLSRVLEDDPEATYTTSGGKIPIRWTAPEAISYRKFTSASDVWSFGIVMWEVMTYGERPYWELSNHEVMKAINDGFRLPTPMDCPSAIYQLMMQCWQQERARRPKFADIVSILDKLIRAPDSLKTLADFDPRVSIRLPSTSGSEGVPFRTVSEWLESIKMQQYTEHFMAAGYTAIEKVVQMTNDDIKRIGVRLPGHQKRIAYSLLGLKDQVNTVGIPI
# [8] = target: T5, EphA2 LBD (Homo sapiens, UniProt P29317); assay: Isothermal titration calorimetry (ITC) of peptide binding
# T5 construct: EphA2 LBD (residues 28-200); made in house; host or cells: E. coli Origami 2 (DE3)
# Procedure: For ITC, all peptides were dissolved in DMSO and both the EphA2 LBD and the peptides were diluted to obtain a final buffer containing 9.5 mM HEPES, pH 7.9, 95 mM NaCl, and 5% DMSO. […] Two-microliter aliquots of a peptide solution were injected into the cell containing 205 μL EphA2 LBD. 200-400 μM peptides were titrated into 20-40 μM EphA2 LBD. Experimental data were analyzed using the Origin software package (Microcal). The integrated values for the reaction heats were normalized to the amount of injected peptide after blank subtraction.
# [9] = target: T4, EphA2; assay: Inhibition of ephrin-A1 Fc-induced EphA2 Y588 phosphorylation in PC3 cells; format: cell-based; parameters: endogenous EphA2 expressed in PC3 prostate cancer cells; endogenous in cells; host or cells: PC3 prostate cancer cells; settings: 20 min peptide then 0.1 μg/ml ephrin-A1 Fc
# Procedure: PC3 cells were treated for 20 min with different concentrations of the indicated peptides and then activated with 0.1 μg/ml ephrin-Al Fc. The immunoblots show EphA2 autophosphorylation on tyrosine 588 (pY588, indicative of receptor activation), total EphA2 levels, and AKT phosphorylation on S473 (indicative of AKT activation). pY588 values were normalized to the value obtained in the same blot with ephrin-Al Fc treatment in the absence of peptide. pAKT values were normalized to the value obtained in the same blot without ephrin-A1 Fc or peptide treatment. Calculated EC50 and IC50 values are shown. The graphs show quantification of pY588 and pAKT from 7 blots for each peptide (averages±SE), normalized to total EphA2 levels.
# Target sequence in this assay (P29317 24-976): as above
# [10] = test system: AKT; assay: AKT S473 phosphorylation in PC3 cells (immunoblot); format: cell-based; settings: peptide then 0.1 μg/ml ephrin-A1 Fc
# Procedure: as §3
# [11] = PBS, Solubility in PBS (mg/ml), PBS (first figure of cell)
# [12] = water, Solubility in H2O (mg/ml), H2O (second figure of cell)
# [13] = EphA2 LBD, 23° C., average ± SE (Table 1), read-out: KD (nM) by ITC
# T5 sequence (P29317 28-200): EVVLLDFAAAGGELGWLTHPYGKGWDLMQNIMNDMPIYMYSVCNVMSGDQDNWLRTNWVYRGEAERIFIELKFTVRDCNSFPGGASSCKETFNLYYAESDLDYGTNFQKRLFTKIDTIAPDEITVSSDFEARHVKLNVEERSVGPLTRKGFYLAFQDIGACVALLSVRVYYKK
# T1 sequence (P29317 24-976 G131Y): as the sequence (P29317 24-976) above, with G108Y counted along it
# T3 sequence (P29317 24-976): as the sequence (P29317 24-976) above
# T2 sequence (P29317 24-976 L223R/L254R/V255R): as the sequence (P29317 24-976) above, with L200R, L231R, V232R counted along it
"solubility [2, 11]","solubility [2, 12]",IC50 [6],"Kd [8, 13]",Structure (SMILES),EphA2 activation / Y588 phosphorylation (in words) [7],also measured
,,,,CC(C)C[C@H](NC(=O)[C@H](Cc1c[nH]c2ccccc12)NC(=O)[C@@H](N)CO)C(=O)N[C@@H](C)C(=O)N[C@@H](Cc1ccc(O)cc1)C(=O)N1CCC[C@H]1C(=O)NCC(=O)N[C@@H](C)C(=O)N[C@H](C(=O)N[C@@H](CO)C(=O)N[C@@H](Cc1ccc(O)cc1)C(=O)N[C@@H](CCCN=C(N)N)C(=O)O)C(C)C [SWL],,solubility ([1]; Solubility in H2O (mg/ml)): 10000 µg/mL; solubility ([1]; Solubility in PBS (mg/ml)): 5000 µg/mL
15000 µg/mL,15000 µg/mL,,,CSCC[C@H](NC(=O)[C@H](CCSC)NC(=O)[C@@H]1CCCN1C(=O)[C@@H](NC(=O)[C@H](CO)NC(=O)[C@H](CC(=O)O)NC(=O)[C@@H]1CCCN1C(=O)[C@H](Cc1ccc(O)cc1)NC(=O)[C@H](C)NC(=O)[C@H](CO)NC(=O)[C@@H](N)Cc1ccc(O)cc1)C(C)C)C(=O)N[C@@H](CO)C(=O)NCC(=O)N[C@@H](CO)C(=O)NCC(=O)N[C@@H](CO)C(=O)N[C@@H](CCCCNC(=O)CCCC[C@@H]1SC[C@@H]2NC(=O)N[C@@H]21)C(=O)O [YSA-GSGSK-bio],,EphA2 G131Y oligomerization by FRET [3]: had no effect on/reduced oligomerization; EphA2 L223R/L254R/V255R oligomerization by FRET [4]: promoted substantial oligomerization; EphA2 WT oligomerization by FRET [5]: substantially increased the oligomeric fraction
5000 µg/mL,5000 µg/mL,82 ± 10 nM,,CC(=O)NCCCC[C@H](NC(=O)[C@@H]1CCCN1C(=O)[C@H](CCCNC(=N)N)NC(=O)[C@H](Cc1ccc(O)cc1)NC(=O)[C@@H]1CCCN1C(=O)[C@@H](NC(=O)[C@H](CO)NC(=O)[C@H](CC(=O)O)NC(=O)[C@@H]1CCCN1C(=O)[C@H](Cc1ccc(O)cc1)NC(=O)[C@H](C)NC(=O)[C@H](CC(C)C)NC(=O)[C@H](Cc1c[nH]c2ccccc12)NC(=O)CCN)C(C)C)C(=O)O [βA-WLA-YRP-ack],only slightly increased agonistic ability,
10000 µg/mL,10000 µg/mL,55 ± 5 nM,190 nM,CC(C)C[C@H](NC(=O)[C@H](Cc1c[nH]c2ccccc12)NC(=O)CCN)C(=O)N[C@@H](C)C(=O)N[C@@H](Cc1ccc(O)cc1)C(=O)N1CCC[C@H]1C(=O)N[C@@H](CC(=O)O)C(=O)N[C@@H](CO)C(=O)N[C@H](C(=O)N1CCC[C@H]1C(=O)N[C@@H](Cc1ccc(O)cc1)C(=O)N[C@@H](CCCNC(=N)N)C(=O)N1CCC[C@H]1C(=O)N[C@@H](CCCCN)C(=O)O)C(C)C [βA-WLA-YRPK],substantial ability to activate EphA2,Kd ([8]; read-out: binding affinity for the EphA2 LBD measured by ITC): ~200 nM; maximal Y588 phosphorylation lower than biotinylated peptide ([7]; saturating peptide concentrations): about 40%
2000 µg/mL,5000 µg/mL,18 ± 1 nM,,CC(C)C[C@H](NC(=O)[C@H](Cc1c[nH]c2ccccc12)NC(=O)CCN)C(=O)N[C@@H](C)C(=O)N[C@@H](Cc1ccc(O)cc1)C(=O)N1CCC[C@H]1C(=O)N[C@@H](CC(=O)O)C(=O)N[C@@H](CO)C(=O)N[C@H](C(=O)N1CCC[C@H]1C(=O)N[C@@H](Cc1ccc(O)cc1)C(=O)N[C@@H](CCCNC(=N)N)C(=O)N1CCC[C@H]1C(=O)N[C@@H](CCCCNC(=O)CCCC[C@@H]1SC[C@@H]2NC(=O)N[C@@H]21)C(N)=O)C(C)C [βA-WLA-YRPKam-bio],induce high levels of EphA2 phosphorylation,
10000 µg/mL,10000 µg/mL,19 ± 2 nM,110 nM,CC(C)C[C@H](NC(=O)[C@H](Cc1c[nH]c2ccccc12)NC(=O)CCN)C(=O)N[C@@H](C)C(=O)N[C@@H](Cc1ccc(O)cc1)C(=O)N1CCC[C@H]1C(=O)N[C@@H](CC(=O)O)C(=O)N[C@@H](CO)C(=O)N[C@H](C(=O)N1CCC[C@H]1C(=O)N[C@@H](Cc1ccc(O)cc1)C(=O)N[C@@H](CCCNC(=N)N)C(=O)N1CCC[C@H]1C(=O)N[C@@H](CCCCN)C(N)=O)C(C)C [βA-WLA-YRPKam],,effect on EphA2 Y588 phosphorylation induced by ephrin-A1 Fc [9]: inhibited; effect on AKT inhibition caused by EphA2 activation [10]: prevented the inhibitory effects
